Test results taken from US12061143B2, “Methods for rapid determinations of antibiotic susceptibility phenotypes” (priority 2018, dated 2024).

Key:
Type in all cases: cell-based
K. pneumoniae Mu55 = test: MIC by broth microdilution AST
Protocol: (§1) Varied counts of bacteria were mixed with human blood and diluted 1:9 (v/v) with bacterial growth medium to desired bacterial concentrations (<10 CFU/mL final solution) and plated to independently confirm CFU/mL blood. Saponin was immediately added and the samples shaken for 15 minutes to achieve selective blood cell lysis. After hemolysis, bacteria were spun down and washed with PBS. The pellets were resuspended in bacterial growth medium and incubated at 37° C. for 2 hours, followed by another 3-hour incubation with antibiotics at various fractions of the minimum inhibition concentration (MIC, as independently determined by microdilution from the pure starting culture, Table 1) for sensitive strains or at the CLSI MIC resistant breakpoints^(12) for the highly resistant strains. Changes in scattered light signals largely resulting from bacterial growth inhibition were monitored by flow cytometry, and the difference in the 2-D scatter histograms with and without antibiotic treatment was quantified with PB-sQF statistics.^(1) Using PB-sQF, distance was calculated for each antibiotic concentration relative to its own no-antibiotic control and expressed as “fold distance” relative to the 99% confidence limit distance between the no-antibiotic control and the sensitive breakpoint. This allowed comparison of fold distances among all samples as each is individually paired to its own control, as is each replicate.
(§2) All clinical isolates (E. coli strains Mu14S and Mu890, K. pneumoniae strains Mu670 and Mu55, A. nosocomialis strains M2) were obtained from the Georgia Emerging Infection Program (GEIP). The MIC of each isolate was determined by a clinical microbiology laboratory using post blood culture automated AST and confirmed using broth microdilution in our laboratory. The MICs of each strain were measured to be as follows. For A. nosocomialis strain M2, 1 μg/mL tetracycline, 2 μg/mL gentamicin, and >1024 μg/mL ampicillin. For E. coli strain Mu890, 1 μg/mL tetracycline, 8 μg/mL gentamicin, and >1024 μg/mL ampicillin. For E. coli strain Mu14S, >64 μg/mL tetracycline, 8 μg/mL gentamicin, and >1024 μg/mL ampicillin. For K. pneumoniae strain Mu55, >64 μg/mL tetracycline, 1 μg/mL gentamicin, and >1024 μg/mL ampicillin. For K. pneumoniae strain Mu670, 2 μg/mL tetracycline, 4 μg/mL gentamicin, and >1024 μg/mL ampicillin.

K. pneumoniae Mu670 = test: MIC by broth microdilution AST
Protocol: as §1, §2

A. nosocomialis M2 = test: MIC by broth microdilution AST
Protocol: as §1, §2

E. coli Mu890 = test: MIC by broth microdilution AST; settings: E. coli Mu890
Protocol: as §1, §2

E. coli Mu14S = test: MIC by broth microdilution AST
Protocol: as §1, §2

[1] = test system: 10% human blood samples without bacteria inoculation; test: Antibiotic-treated 10% human blood only control (no bacteria), flow cytometry; settings: 10% human blood without bacteria, around the resistance breakpoints of Enterobacteriaceae
Protocol: FIGS. 6A-6D. Antibiotic-treated 10% human blood only results. Cytometric data with (FIG. 6A) Ampicillin (FIG. 6B) Tetracycline (FIG. 6C) Gentamicin. The greyscale plots are the no-antibiotic controls and the black contour plots are the antibiotic-treated data with the antibiotic concentration indicated at each plot. (FIG. 6D) PB-sQF results for FIGS. 6A-6C). […] For each antibiotic, the resistant breakpoints of Enterobacteriaceae are 16 μg/mL for tetracycline and gentamicin and 32 μg/mL for ampicillin.
This confirms that the gentamicin sensitivity of Mu14S observed after blood culture^(1) can also be observed on much shorter timescales with FAST. Overnight plating confirms that initial Mu14S counts were 3, 2, 5 and CFU/mL for tetracycline, gentamicin and ampicillin data after 10-fold dilution of the blood/bacteria mixture, corresponding to FAST being performed on whole blood samples containing ˜30, ˜20 and ˜50 CFU/mL. […] Thus, diluting bacterimic blood specimens 1:9 (v:v) directly into saponin-containing growth medium provides a path to ASTs within 8 hours from initial blood draw, with excellent results matching independent (36-44 hrs) MIC determinations from pure, overnight cultures (˜10^8 CFU/mL) that could only be initiated after (˜24 hr) positive blood culture.

[2] = class according to 2016 CLSI handbook
[3] = microdilution from pure culture

Gentamicin
MIC (S/I/R) (K. pneumoniae Mu55; [2]): (S)
MIC (K. pneumoniae Mu55; [3]): 1 µg/mL
MIC (S/I/R) (K. pneumoniae Mu670; [2]): (S)
MIC (K. pneumoniae Mu670; [3]): 4 µg/mL
MIC (S/I/R) (A. nosocomialis M2; [2]): (S)
MIC (A. nosocomialis M2; [3]): 2 µg/mL
MIC (S/I/R) (E. coli Mu890; [2]): (I)
MIC (E. coli Mu890; [3]): 8 µg/mL
MIC (S/I/R) (E. coli Mu14S; [2]): (I)
MIC (E. coli Mu14S; [3]): 8 µg/mL
scattered light histograms change [1]: do not significantly change
